Measured values published in the METLIN SMRT retention time set (Domingo-Almenara et al. 2019).

Experiment: gradient 5% acetonitrile 3 min, to 50% in 2 min, to 85% in 15 min, held 3 min, 100 µL/min
Conditions: column: Zorbax Extend-C18 2.1 x 50 mm; eluents: water / acetonitrile, 0.1% formic acid
Procedure, shortened: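 Pure standards were analyzed in mixtures of ~100 molecules using HPLC coupled to a quadrupole time-of-flight mass spectrometer, in both positive and negative ionization mode. Separation used a Zorbax Extend-C18 column (2.1 × 50 mm, 1.8 μm) at 100 μL/min, with water and acetonitrile each containing 0.1% formic acid. Dead and dwell volumes were 40 μL and 900 μL, and data were collected over 3 months. Retention time was read from computationally picked adduct peaks, each inspected manually.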

Row | RP-LC retention time | SMILES
1 | 700 s | NC(=O)C1CCN(C(=O)c2ccc(CN3C(=O)CCn4nc(-c5cccc(Cl)c5)cc43)cc2)CC1
2 | 705 s | O=C(CCc1nc2ccccc2s1)N1C[C@H]2CNC(=O)[C@]23CCCC[C@@H]13
3 | 809 s | COC(=O)COc1cc(-c2ccc(F)cc2)nc2ccc(NC(=O)Cc3ccccc3)cc12
4 | 570 s | CC(=O)NCC(=O)N1CCCn2cc(-c3ccccc3)nc21
5 | 729 s | CCN1CCn2cc(S(=O)(=O)Nc3cccc(C)c3C)cc2C1=O
6 | 954 s | COc1ccc(-c2ccc(=O)n(Cc3nc(-c4ccccc4)no3)n2)cc1
7 | 698 s | Cc1ccc(Cl)cc1NC(=O)CSc1ccc(N2CCCC(C(=O)NC3CC3)C2)nn1 (configuration not stated)
8 | 802 s | O=C(NC1(c2nc(-c3cccnc3)no2)CCCCC1)c1ccoc1
9 | 655 s | CCCCN1CCc2nc(Nc3cc(OC)ccc3OC)ncc2C1
10 | 760 s | Cc1ccc(-c2nc(-c3ccc4c(c3)nnn4CCN3CCOCC3)no2)cc1C
11 | 828 s | O=C(C1CC(=O)N(c2ccccc2)C1)N1CCSCC1 (configuration not stated)
12 | 852 s | Cc1nn2c(CNS(=O)(=O)c3cccc(F)c3)c(-c3ccccc3)nc2s1
13 | 594 s | O=C(Nc1ccc(CC(=O)N2CCOCC2)cc1)c1ccco1
14 | 773 s | O=C(Cc1ccc(Br)cc1)N1CCCN(c2cc(-c3ccc(F)cc3)[nH]n2)CC1
15 | 766 s | Cc1ccc2c(c1)C(O)(CC(=O)c1ccc(NC(=O)C3CCCCC3)cc1)C(=O)N2 (configuration not stated)
16 | 970 s | O=C(Nc1cnc(-c2ccccc2)nc1)c1ccccc1C(F)(F)F
17 | 1230 s | CCOC(=O)c1cnc2c(-c3ccc(Br)cc3)c(C)nn2c1N
18 | 802 s | CCOC(=O)C1CCN(C(=O)Cn2c(=O)c3cccn3c3ccc(F)cc32)CC1
19 | 727 s | CSc1ccc(NC(=O)c2cn3c(n2)CSCC3)cc1
20 | 765 s | O=C(N[C@H]1C[C@@H]2C[C@H]1N(C(=O)NCc1cccc(F)c1)C2)c1cccs1
21 | 656 s | CCCc1ccc(S(=O)(=O)N2CCc3nc[nH]c3C2)cc1
22 | 660 s | CC1CCN(C(=O)c2csc(-c3ccc(N4CCCC4)nc3)n2)CC1

Row | RP-LC retention time | SMILES
23 | 902 s | Cc1cc2c(c(=O)n(-c3ccccc3)c(=O)n2CC(=O)Nc2ccc(F)c(Cl)c2)n1C
24 | 855 s | Cc1cc(C2CCCN2C(=O)c2cnn3c(C(F)(F)F)cc(-c4ccco4)nc23)on1 (configuration not stated)
25 | 980 s | CN(CC1(C)CCOCC1)S(=O)(=O)c1cccc(C(F)(F)F)c1
26 | 800 s | O=C(Cn1c(=O)c2cccn2c2ccc(F)cc21)NC1CCCC1
27 | 630 s | CCCC(=O)N(C)CC1CCOCC1
28 | 798 s | COc1ccc(-c2noc(CN3N=NC4C(=O)N(c5ccc(OC)c(OC)c5)C(=O)C43)n2)cc1OC (configuration not stated)
29 | 715 s | COc1cccc(NC(=O)N2CCC(n3c(-c4ccoc4)nc4cccnc43)C2)c1 (configuration not stated)
30 | 1010 s | Cc1ccc(N2N=NC3C(=O)N(c4ccccc4)C(=O)C32)cc1F (configuration not stated)
31 | 988 s | CCOC(=O)c1nc(NCc2ccccc2OCC)c2c(C)noc2n1
32 | 593 s | COc1ccc(NC(=O)CSc2nccc(N3CCCC3)n2)cc1Cl
33 | 648 s | COCC(=O)NC1CCC12CCN(C(=O)c1ccco1)CC2 (configuration not stated)
34 | 834 s | Cc1cccc(NC(=O)N2CCC(C)(C(=O)NCc3ccc(F)cc3)CC2)c1C
35 | 680 s | CCNc1cc(N2CCC(CCC(=O)NCc3ccc(F)cc3Cl)CC2)ncn1
36 | 664 s | O=C(c1ccoc1)N1CCCCC1c1nc(-c2cnccn2)no1 (configuration not stated)
37 | 800 s | Cc1ccc(NC(=O)Cn2c(=O)n(-c3ccc(F)cc3)c(=O)c3c2cc(C)n3C)cc1
38 | 867 s | O=C(CSc1cc(-n2ccc(C(=O)NC3CC3)n2)ncn1)Nc1ccc(Cl)cc1F
39 | 930 s | CCc1cccc(N2C=C(C(=O)OC)S(=O)(=O)c3ccccc32)c1
40 | 1130 s | O=C(c1csc(N2CCN(c3ccc(Cl)cc3)CC2)n1)N1CCCCC1
41 | 711 s | CC(C)(C)NC(=O)c1ccc(-n2cc(CNC(=O)C3CC3)cn2)cc1
42 | 622 s | Cc1cc(=O)n(CC(=O)Nc2ccccc2)c(N2CCCC2)n1
43 | 647 s | CCN1C(=O)CCc2cc(NC(=O)Cc3ccc(OC)cc3Cl)ccc21
44 | 761 s | CCOC(=O)c1cccc(NC(=O)Cc2csc3nc(-c4ccc(OC)c(OC)c4)cn23)c1

Row | RP-LC retention time | SMILES
45 | 755 s | COc1ccc(-c2nc3cnccn3c2Nc2ccc(C(=O)NC3CCCCC3)cc2)cc1OC
46 | 878 s | O=C(Nc1ccccc1Cl)c1csc(-c2ccc(N3CCCC3)nc2)n1
47 | 778 s | CCCc1c(C(=O)O)nnn1-c1ccc(Cl)cc1
48 | 706 s | CN(Cc1nc2ccccc2n1CCc1ccccc1)C(=O)c1ccco1
49 | 768 s | CCn1cc(CC(=O)NC2CCCCCC2)c2cccnc21
50 | 839 s | O=C(NCCc1csc(-c2cccs2)n1)C1CCN(C(=O)CCc2ccccc2)CC1
51 | 611 s | CCn1c(CN(C)C(=O)Nc2ccc3c(c2)OCCO3)nc2cc(C(=O)N(C)C)ccc21
52 | 890 s | CCn1cc(C(=O)Nc2cccc(Cl)c2)c(S(=O)(=O)N2CCSCC2)n1
53 | 836 s | Cc1ccc(F)cc1S(=O)(=O)N(C)CC1CCOC1 (configuration not stated)
54 | 829 s | Cc1ccc(-c2nnc(CC(=O)NCCC(C)C)o2)cc1
55 | 1070 s | Cc1sc(C)c(C(=O)NC2(c3ccc(C(=O)O)cc3)CC2)c1Cc1ccc(C(F)(F)F)cc1
56 | 701 s | Cc1ccc(C)c(NS(=O)(=O)c2cc(-c3[nH]ncc3C(=O)N3CCOCC3)oc2C)c1
57 | 603 s | O=C(CCCn1c(=O)c2cccn2c2ccc(F)cc21)NCCCN1CCOCC1
58 | 1060 s | COc1ccc(-c2nc(-c3cccc(-c4ccn[nH]4)c3)no2)c(C)c1
59 | 1130 s | CCn1c(C(=O)NCc2ccccc2OC)cc2sc(Cl)cc21
60 | 666 s | CN(C1CCc2nn(Cc3ccccc3)c(=O)n2CC1)S(C)(=O)=O (configuration not stated)
61 | 584 s | CCN1CCN(c2cc(C)c3cc(NC(=S)NCc4cccs4)ccc3n2)CC1
62 | 1050 s | Cn1cc(C2=CCN(S(=O)(=O)c3ccc(F)c(Cl)c3)CC2)c2cccnc21
63 | 722 s | Cc1ccc(NS(=O)(=O)c2cc3n(c2)CCN(C)C3=O)cc1C
64 | 1250 s | CCCCn1cc(S(=O)(=O)N2CCN(c3cccc(Cl)c3)CC2)c2cccnc21
65 | 848 s | CCOC(=O)c1ccc(NC(=O)c2c(C)oc3nc(C)nc(N4CCCC4)c23)cc1
66 | 557 s | CC(=O)c1ccc(NC(=O)CCn2nc(C)nc2C)cc1

Row | SMILES | RP-LC retention time
67 | COc1ccc(C2=NCC(=O)N(CC(=O)Nc3cc(F)ccc3F)c3sccc32)cc1 | 702 s
